In brackets after ≈: the same amount, converted by molar mass.
Assays:
[1] = test system: S. cerevisiae EG103 (SOD-WT); experiment: Yeast survival assay, EG103 (SOD-WT); assay type: cell-based, Saccharomyces cerevisiae; details: STAT cells, 1 h in PBS 30°C
Description: (§1) Media, solutions and buffers were prepared according to Burke et al.. YPD medium (0.5% yeast extract, 2% peptone, 2% glucose) was used for routine growth. Synthetic medium SC (0.67% yeast nitrogen base, 0.1% ammonium sulfate, 2% glucose) supplemented with the appropriate amino acids and bases ([…]) was used for the detection of mutations.
(§2) Stationary phase (STAT) cultures were obtained by inoculation of a single colony into liquid YPD. We chose to work in the stationary phase of growth because this resembles most cells of multicellular organisms in important aspects: (i) most energy comes from mitochondrial respiration; (ii) the cells have left the active cell cycle and have entered the Go phase; and (iii) damage accumulates over time.
(§3) STAT cells (1 × 10^8 cells/mL) were exposed to TTHL (10–500 μg/mL) and incubated under growth conditions for 1 h in PBS at 30°C. Cells were then washed and treated with H2O2 (5 mM) in PBS for another hour. Suitable aliquots were plated in triplicate on solid YPD (2–3 days, 30°C) and colony-forming units were counted. Sensitivity was expressed as a percentage of survival in relation to the negative control (solvent).

[2] = test system: S. cerevisiae EG133 (sod1Δsod2Δ); experiment: Yeast survival assay, EG133 (sod1Δsod2Δ); assay type: cell-based, Saccharomyces cerevisiae; details: for survival (percentage in relation to negative control): STAT cells, 1 h in PBS 30°C
Description: as §1, §2, §3

[3] = test system: MCF-7 (breast adenocarcinoma); experiment: XTT cell viability assay, MCF-7; assay type: cell-based, human; details: for IC50: XTT
Description: The human cell lines MCF-7 (breast adenocarcinoma), HepG2 (hepatoma), T24 (bladder cancer), CACO-2 (colorectal adenocarcinoma) and MRC5 (lung normal fibroblast) were obtained from the Rio de Janeiro Cell Bank (Rio de Janeiro, RJ, Brazil). The HCT116 cell (colorectal carcinoma), and HT29 cell (colorectal adenocarcinoma) were kindly provided by Dr. Annette K. Larsen (Institut National de la Santé et de la Recherche Médicale - INSERM, Paris, França). All cell lines except MCF-7 were grown in DMEM supplemented with 10% or 20% (for CACO-2) FBS, 100 units.mL^-1 penicillin and 100 μg.mL^-1 streptomycin at 37°C in a humidified atmosphere of 5% CO2. MCF-7 cells were maintained in RPMI-1640 supplemented with 20% FBS at the same conditions described above.
The cytotoxic potential of the TTHL was evaluated by the XTT assay in human tumor cell lines as well as in MRC5 normal fibroblasts. Cells (1 × 10^4 cells) were seeded on 96-well plates in growth medium and incubated overnight. Afterwards, TTHL (0.5, 1.0, 2.5, 5.0, and 10 μg/mL) was added to each well and incubated for 24, 48, 72, and 120 h. Mitoxantrone, a cytostatic anthracenedione that intercalates in DNA and increases the incidence of double-strand breaks by stabilizing the cleavable complex of topoisomerase II and DNA, was used as positive control. At the end of each treatment, cell viability was assessed according to the manufacturer’s instructions. Briefly, after discarding the medium, 1 mL of XTT labeling mixture was added to the cells and incubated for 2 h at 37°C. Absorbance was measured with a SpectraMax reader (Bio-Rad, USA) at a test wavelength of 492 nm (A492) and a reference wavelength of 690 nm (A690). The final result corresponds to A492-A690. The absorbance of negative control cells was set as 100% viability, and the values for treated cells were calculated as a percentage of the control.
The IC20, IC50, and IC80 values and their 95% confidence intervals (CI 95%) were obtained by nonlinear regression using GraphPad Prism v5 program (Intuitive Software for Science, San Diego, CA, USA). Selective index (SI) was calculated by IC50 in MRC5 cells/IC50 in tumoral cells. All experiments were independently repeated at least three times, with triplicate samples for each treatment. Results are expressed as means ± standard deviation (SD). Data were analyzed by one-way analysis of variance (ANOVA), and means were compared using Tukey test, with P ≤ 0.05 considered as statistically significant.

How did the “survival (percentage in relation to negative control)” value ([1]; TTHL 10 μg/mL) turn out when `C=C(C)[C@@H]1CC[C@@]2(C)[C@H]1[C@H]1CC[C@@H]3[C@@]4(C)CC[C@H](O)C(C)(C)[C@@H]4[C@H](O)C[C@@]3(C)[C@]1(C)C[C@@H]2O` [TTHL, 3β,6β,16β-trihydroxy-lup-20(29)-ene] was run?
The value was 100 ± 2.83%.

And the “survival (percentage in relation to negative control)” value ([1]; TTHL 50 μg/mL)?
Its value is 87.65 ± 5.16 %.

And the “survival (percentage in relation to negative control)” value ([1]; TTHL 100 μg/mL)?
The value was 79.45 ± 1.91 %.

What about the “survival (percentage in relation to negative control)” value ([1]; TTHL 500 μg/mL) of the same compound?
The value was 67.65 ± 3.04 %.

What about the “survival (percentage in relation to negative control)” value ([2]; TTHL 10 μg/mL) of the same compound?
Its value is 79.35 ± 2.19 %.

And the “survival (percentage in relation to negative control)” value ([2]; TTHL 50 μg/mL)?
The value was 67.85 ± 10.54 %.

And the “survival (percentage in relation to negative control)” value ([2]; TTHL 100 μg/mL)?
Its value is 58.15 ± 3.89 %.

What about the “survival (percentage in relation to negative control)” value ([2]; TTHL 500 μg/mL) of the same compound?
The value was 41.45 ± 4.03 %.

What about the “sensitivity of the strain to TTHL (in words)” value ([2]; deficient in superoxide dismutase) of the same compound?
The value was “hypersensitive”.

And the IC20 ([3]; Homo sapiens, MCF7, MCF-7, 24 h, determined by XTT assay, read-out: IC20 (20% inhibitory concentration))?
Its IC20 is 0.5 µg/mL (≈ 1.09 µM).

And the IC80 ([3]; Homo sapiens, MCF7, MCF-7, 24 h, determined by XTT assay, read-out: IC80 (80% inhibitory concentration))?
Its IC80 is 3.7 µg/mL (≈ 8.07 µM).

And the IC50 ([3]; Homo sapiens, MCF7, MCF-7, 24 h treatment)?
The IC50 was 1.36 ± 0.05 µg/mL (≈ 2.96 µM).

And the IC50 ([3]; Homo sapiens, MCF7, MCF-7, 48 h treatment)?
Its IC50 is 0.73 ± 0.05 µg/mL (≈ 1.59 µM).

And the IC50 ([3]; Homo sapiens, MCF7, MCF-7, 72 h treatment)?
Its IC50 is 0.63 ± 0.04 µg/mL (≈ 1.37 µM).

And the IC50 ([3]; Homo sapiens, MCF7, MCF-7, 120 h treatment)?
Its IC50 is 0.3 ± 0.04 µg/mL (≈ 0.654 µM).

And the “Selectivity index (SI)” value ([3]; IC50 in MRC5 cells/IC50 in MCF-7, 48 h)?
Its value is 10 X.

And the “Selectivity index (SI)” value ([3]; IC50 in MRC5 cells/IC50 in MCF-7, 72 h)?
The value was 12 X.

What about the “Selectivity index (SI)” value ([3]; IC50 in MRC5 cells/IC50 in MCF-7, 120 h) of the same compound?
The value was 23 X.

Reference: article PMC4129108, “The natural triterpene 3β,6β,16β-trihydroxy-lup-20(29)-ene obtained from the flowers of Combretum leprosum induces apoptosis in MCF-7 breast cancer cells” (BMC Complementary and Alternative Medicine, 2014)
